SMILES strings stand for the structures. pIC50: −log10 of the molar value. Positions of bridges follow the written chain, without caps; N, C: chain ends. Non-standard residues stand in square brackets, D forms with d. Residues, ends and D or L forms follow the SMILES beside them. ξ: configuration not given here. *: point of attachment. Phe(4-COOH) = N[C@@H](Cc1ccc(C(=O)O)cc1)C(=O)O; Bip = N[C@@H](Cc1ccc(-c2ccccc2)cc1)C(=O)O; Phe(3-CN) = N#Cc1cccc(C[C@H](N)C(=O)O)c1; Phe(3-OMe) = COc1cccc(C[C@H](N)C(=O)O)c1; Phe(2-Cl) = N[C@@H](Cc1ccccc1Cl)C(=O)O; Phe(3-Me) = Cc1cccc(C[C@H](N)C(=O)O)c1; NMeF = CN[C@@H](Cc1ccccc1)C(=O)O; 3Pal = N[C@@H](Cc1cccnc1)C(=O)O; Cha = N[C@@H](CC1CCCCC1)C(=O)O; ξR = N=C(N)NCCCC(N)C(=O)O; Carboxymethyl = O=C(O)C*; NMeA = CN[C@@H](C)C(=O)O; Orn = NCCC[C@H](N)C(=O)O; Dab = NCC[C@H](N)C(=O)O; Dap = NC[C@H](N)C(=O)O; ξV = CC(C)C(N)C(=O)O; ξS = NC(CO)C(=O)O; Sar = CNCC(=O)O

The assay deals with T1, human PD-1 (Jurkat-PD-1 cells) / PE-labeled human PD-L1-Ig (Homo sapiens, UniProt Q15116).
T1 construct: expressed in transfected cells; host or cells: Jurkat cell line over-expressing human PD-1
As to the kind of experiment: Jurkat-PD-1 Cell Binding High-Content Screening Assay (CBA); Jurkat hPD1-PDL1 assay. To be noted: Jurkat cell line over-expressing human PD-1; PE-labeled PD-L1-Ig 20 nM final; compound incubated 2 hours at 37° C.; read-out: Jurkat HPD1-PDL1 IC50. In outline: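 Jurkat-hPD-1 cells; cpd 2 h, 37° C; then PE-PD-L1-Ig 20 nM final in DMEM/10% FCS; high-content imaging read-out.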

T1 sequence (Q15116 25-288): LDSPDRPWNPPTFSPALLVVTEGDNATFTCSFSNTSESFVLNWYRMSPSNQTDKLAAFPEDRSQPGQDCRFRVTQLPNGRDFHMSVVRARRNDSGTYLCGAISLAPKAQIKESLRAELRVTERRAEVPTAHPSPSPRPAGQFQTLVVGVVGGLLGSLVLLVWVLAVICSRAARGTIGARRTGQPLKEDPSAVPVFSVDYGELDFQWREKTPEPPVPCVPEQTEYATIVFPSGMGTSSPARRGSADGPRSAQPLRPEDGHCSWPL

In general, pIC50 refers to the negative decadic logarithm of the IC50, by convention in mol/L. Regarding `CC(C)C[C@@H]1NC(=O)[C@H](CCCNC(=N)N)NC(=O)[C@H](Cc2ccccc2)N(C)C(=O)[C@@H](C)NC(=O)[C@H](CCCNC(=N)N)NC(=O)[C@H](Cc2ccc(-c3ccccc3)cc2)NC(=O)[C@H](C(C)C)NC(=O)[C@H](Cc2c[nH]c3ccccc23)NC(=O)[C@H](CC(=O)O)NC(=O)[C@H](Cc2ccc(O)cc2)NC(=O)[C@H](CC(N)=O)NC(=O)CSC[C@@H](C(=O)N[C@@H](C)C(N)=O)NC(=O)[C@H]([C@@H](C)O)NC(=O)[C@H](C(C)C)NC1=O` [Example 1363] ({CH2CO}-NYDWV[Bip]R[dA][NMeF]RLVTCA-NH2; thioether N-14), the pIC50 is 6.03.

Take `CC(C)C[C@@H]1NC(=O)[C@H](Cc2c[nH]c3ccccc23)NC(=O)[C@H](CC(=O)O)NC(=O)[C@H](Cc2ccc(O)cc2)NC(=O)[C@H](Cc2ccccc2)NC(=O)CSC[C@@H](C(=O)NCC(N)=O)NC(=O)[C@H](CO)NC(=O)[C@H](C(C)C)NC(=O)[C@H](CC(C)C)NC(=O)[C@H](CCCN)NC(=O)CN(C)C(=O)[C@H](C)N(C)C(=O)[C@H](C(C)C)NC(=O)[C@H](Cc2ccc(-c3ccccc3)cc2)NC1=O` [Example 1079] ({CH2CO}-FYDWL[Bip]V[NMeA][Sar][Orn]LVSCG-NH2; thioether N-14): the pIC50 was 6.66.

`CC(C)C[C@@H]1NC(=O)[C@H](Cc2c[nH]c3ccccc23)NC(=O)[C@H](CC(=O)O)NC(=O)[C@H](Cc2ccc(O)cc2)NC(=O)[C@H](Cc2ccccc2)NC(=O)CSC[C@@H](C(=O)NCC(N)=O)NC(=O)[C@H](CO)NC(=O)[C@H](C(C)C)NC(=O)[C@H](CC(C)C)NC(=O)[C@H](CCC(=O)O)NC(=O)CN(C)C(=O)[C@H](C)N(C)C(=O)[C@H](C(C)C)NC(=O)[C@H](Cc2ccc(-c3ccccc3)cc2)NC1=O` [Example 1071] ({CH2CO}-FYDWL[Bip]V[NMeA][Sar]ELVSCG-NH2; thioether N-14): the negative logarithm of the IC50 (pIC50) was 6.72.

With `CC(C)C[C@@H]1NC(=O)[C@H](CCCNC(=N)N)NC(=O)[C@H](Cc2ccccc2)N(C)C(=O)[C@H](C)N(C)C(=O)[C@H](CCC(=O)O)NC(=O)[C@H](Cc2ccc(-c3ccccc3)cc2)NC(=O)[C@H](C(C)C)NC(=O)[C@H](Cc2c[nH]c3ccccc23)NC(=O)[C@H](CC(=O)O)NC(=O)[C@H](Cc2ccc(O)cc2)NC(=O)[C@H](CCC(N)=O)NC(=O)CSC[C@@H](C(=O)NCC(N)=O)NC(=O)[C@H](CO)NC(=O)[C@H](C(C)C)NC1=O` [Example 1286] ({CH2CO}-QYDWV[Bip]E[NMeA][NMeF]RLVSCG-NH2; thioether N-14), the negative logarithm of the IC50 (pIC50) is 6.12.

As to `Cc1cccc(C[C@@H]2NC(=O)[C@H](CC(=O)O)NC(=O)[C@H](Cc3ccc(OCC(=O)O)cc3)NC(=O)[C@H](CN)NC(=O)CSC[C@@H](C(=O)N[C@@H](C)C(N)=O)NC(=O)[C@H]([C@@H](C)O)NC(=O)[C@H](C(C)C)NC(=O)[C@H](CC3CCCCC3)NC(=O)[C@H](CCN)NC(=O)[C@H](Cc3ccccc3)N(C)C(=O)[C@H](CCCN)NC(=O)[C@H](CCC(=O)O)NC(=O)[C@H](Cc3ccc(-c4ccccc4)cc3)NC(=O)C(C(C)C)NC2=O)c1` (stereo partly shown) [Example 1448] ({CH2CO}-[Dap]Y(Carboxymethyl)D[Phe(3-Me)][ξV][Bip]E[Orn][NMeF][Dab][Cha]VTCA-NH2; thioether N-14), the pIC50 is 7.52.

In the case of `CC(C)C[C@@H]1NC(=O)[C@H](C)NC(=O)CN(C)C(=O)[C@H](C)N(C)C(=O)[C@H](CCC(=O)O)NC(=O)[C@H](Cc2ccc(-c3ccccc3)cc2)NC(=O)[C@H](CC(C)C)NC(=O)[C@H](Cc2c[nH]c3ccccc23)NC(=O)[C@H](CC(=O)O)NC(=O)[C@H](Cc2ccc(O)cc2)NC(=O)[C@H](Cc2ccccc2)NC(=O)CSC[C@@H](C(=O)N[C@@H](C)C(N)=O)NC(=O)[C@H](CO)NC(=O)[C@H](C(C)C)NC1=O` [Example 1164] ({CH2CO}-FYDWL[Bip]E[NMeA][Sar]ALVSCA-NH2; thioether N-14), the pIC50 was 6.05.

In the case of `CC(C)C[C@@H]1NC(=O)[C@H](Cc2ccccc2Cl)NC(=O)[C@H](CC(=O)O)NC(=O)[C@H](Cc2ccc(O)cc2)NC(=O)[C@H](Cc2ccccc2)NC(=O)CSC[C@@H](C(=O)N[C@@H](C)C(N)=O)NC(=O)[C@H](CO)NC(=O)[C@H](C(C)C)NC(=O)[C@H](CC(C)C)NC(=O)[C@H](CC(N)=O)NC(=O)CN(C)C(=O)[C@H](C)N(C)C(=O)[C@H](C(C)C)NC(=O)[C@H](Cc2ccc(-c3ccccc3)cc2)NC1=O` [Example 1170] ({CH2CO}-FYD[Phe(2-Cl)]L[Bip]V[NMeA][Sar]NLVSCA-NH2; thioether N-14), the negative logarithm of the IC50 (pIC50) is 6.03.

Take `CC(C)C[C@@H]1NC(=O)[C@H](CC(N)=O)NC(=O)CN(C)C(=O)[C@H](C)N(C)C(=O)[C@H](C(C)C)NC(=O)[C@H](Cc2ccc(-c3ccccc3)cc2)NC(=O)[C@H](CC2CCCCC2)NC(=O)[C@H](Cc2c[nH]c3ccccc23)NC(=O)[C@H](CC(=O)O)NC(=O)[C@H](Cc2ccc(O)cc2)NC(=O)[C@H](Cc2ccccc2)NC(=O)CSC[C@@H](C(=O)NCC(N)=O)NC(=O)[C@H](CO)NC(=O)[C@H](C(C)C)NC1=O` [Example 1145] ({CH2CO}-FYDW[Cha][Bip]V[NMeA][Sar]NLVSCG-NH2; thioether N-14): the pIC50 is 6.19.

As for `CC(C)C[C@@H]1NC(=O)[C@H](Cc2c[nH]c3ccccc23)NC(=O)[C@H](CC(=O)O)NC(=O)[C@H](Cc2ccc(O)cc2)NC(=O)[C@H](Cc2ccccc2)NC(=O)CSC[C@@H](C(=O)N[C@@H](C)C(N)=O)NC(=O)C(CO)NC(=O)[C@H](C(C)C)NC(=O)[C@H](CC(C)C)NC(=O)[C@H](CCN)NC(=O)[C@H]2CCCN2C(=O)[C@H](CCN)NC(=O)[C@H](C(C)C)NC(=O)[C@H](Cc2ccc(-c3ccccc3)cc2)NC1=O` (stereo partly shown) [Example 1415] ({CH2CO}-FYDWL[Bip]V[Dab][dP][Dab]LV[ξS]CA-NH2; thioether N-14), the pIC50 is 7.10.

`CC(C)C[C@@H]1NC(=O)C(CCCNC(=N)N)NC(=O)[C@H](Cc2ccccc2)N(C)C(=O)[C@H](CCC(=O)O)NC(=O)[C@H](CCCNC(=N)N)NC(=O)[C@H](Cc2ccc(-c3ccccc3)cc2)NC(=O)[C@H](C(C)C)NC(=O)[C@H](Cc2c[nH]c3ccccc23)NC(=O)[C@H](CC(=O)O)NC(=O)[C@H](Cc2ccc(O)cc2)NC(=O)[C@H](Cc2ccccc2)NC(=O)CSC[C@@H](C(=O)NCC(N)=O)NC(=O)[C@H](CO)NC(=O)[C@H](C(C)C)NC1=O` (stereo partly shown) [Example 1223] ({CH2CO}-FYDWV[Bip]RE[NMeF][ξR]LVSCG-NH2; thioether N-14): the pIC50 is 6.00.

For the compound `COc1cccc(C[C@@H]2NC(=O)[C@H](CC(=O)O)NC(=O)[C@H](Cc3cccc(C#N)c3)NC(=O)[C@H](CN)NC(=O)CSC[C@@H](C(=O)N[C@@H](C)C(N)=O)NC(=O)[C@H](CO)NC(=O)[C@H](C(C)C)NC(=O)[C@H](CC(C)C)NC(=O)[C@H](CC(N)=O)NC(=O)[C@H]3CCCN3C(=O)[C@H](C)N(C)C(=O)[C@H](C(C)C)NC(=O)[C@H](Cc3ccc(-c4ccccc4)cc3)NC(=O)[C@H](CC(C)C)NC2=O)c1` [Example 1393] ({CH2CO}-[Dap][Phe(3-CN)]D[Phe(3-OMe)]L[Bip]V[NMeA][dP]NLVSCA-NH2; thioether N-14), the pIC50 is 7.70.

Take `CC(C)C[C@@H]1NC(=O)[C@H](CCN)NC(=O)[C@H](Cc2ccccc2)N(C)C(=O)[C@H](C)N(C)C(=O)[C@H](CCCNC(=N)N)NC(=O)[C@H](Cc2ccc(-c3ccccc3)cc2)NC(=O)[C@H](C(C)C)NC(=O)[C@H](Cc2c[nH]c3ccccc23)NC(=O)[C@H](CC(=O)O)NC(=O)[C@H](Cc2ccc(O)cc2)NC(=O)[C@H](CCC(N)=O)NC(=O)CSC[C@@H](C(=O)N[C@@H](C)C(N)=O)NC(=O)[C@H](CO)NC(=O)[C@H](C(C)C)NC1=O` [Example 1307] ({CH2CO}-QYDWV[Bip]R[NMeA][NMeF][Dab]LVSCA-NH2; thioether N-14): the pIC50 was 6.77.

With `COc1ccc(C[C@@H]2NC(=O)[C@H](Cc3ccccc3)NC(=O)CSC[C@@H](C(=O)N[C@@H](C)C(N)=O)NC(=O)[C@H](CO)NC(=O)[C@H](C(C)C)NC(=O)[C@H](CC(C)C)NC(=O)[C@H](CC(N)=O)NC(=O)CN(C)C(=O)[C@H](C)N(C)C(=O)[C@H](C(C)C)NC(=O)[C@H](Cc3ccc(-c4ccccc4)cc3)NC(=O)[C@H](CC(C)C)NC(=O)[C@H](Cc3c[nH]c4ccccc34)NC(=O)[C@H](CC(=O)O)NC2=O)cc1` [Example 1139] ({CH2CO}-FY(Me)DWL[Bip]V[NMeA][Sar]NLVSCA-NH2; thioether N-14), the negative logarithm of the IC50 (pIC50) was 6.23.

As for `CC(C)C[C@@H]1NC(=O)[C@H](C)NC(=O)[C@H]2CCCN2C(=O)[C@H](C)N(C)C(=O)[C@H](CCC(=O)O)NC(=O)[C@H](Cc2ccc(-c3ccccc3)cc2)NC(=O)[C@H](CC(C)C)NC(=O)[C@H](Cc2c[nH]c3ccccc23)NC(=O)[C@H](CC(=O)O)NC(=O)[C@H](Cc2ccc(C(=O)O)cc2)NC(=O)[C@H](Cc2cccnc2)NC(=O)CSC[C@@H](C(=O)N[C@@H](C)C(N)=O)NC(=O)[C@H](CO)NC(=O)[C@H](C(C)C)NC1=O` [Example 1085] ({CH2CO}-[3Pal][Phe(4-COOH)]DWL[Bip]E[NMeA][dP]ALVSCA-NH2; thioether N-14), the pIC50 is 6.62.

On to `CC(C)C[C@@H]1NC(=O)[C@H](CCCNC(=N)N)NC(=O)[C@H](Cc2ccccc2)N(C)C(=O)[C@H](C)N(C)C(=O)[C@H](CCCNC(=N)N)NC(=O)[C@H](Cc2ccc(-c3ccccc3)cc2)NC(=O)[C@H](C(C)C)NC(=O)[C@H](Cc2c[nH]c3ccccc23)NC(=O)[C@H](CC(=O)O)NC(=O)[C@H](Cc2ccc(O)cc2)NC(=O)[C@H](CCC(N)=O)NC(=O)CSC[C@@H](C(=O)NCC(N)=O)NC(=O)[C@H](CO)NC(=O)[C@H](C(C)C)NC1=O` [Example 1057] ({CH2CO}-QYDWV[Bip]R[NMeA][NMeF]RLVSCG-NH2; thioether N-14), for which the pIC50 is 6.89.

Take `CC(C)C[C@@H]1NC(=O)[C@H](Cc2ccccc2)NC(=O)[C@H](CC(=O)O)NC(=O)[C@H](Cc2ccc(O)cc2)NC(=O)[C@H](Cc2ccccc2)NC(=O)CSC[C@@H](C(=O)NCC(N)=O)NC(=O)[C@H](CO)NC(=O)[C@H](C(C)C)NC(=O)[C@H](CC(C)C)NC(=O)[C@H](CC(N)=O)NC(=O)CN(C)C(=O)[C@H](C)N(C)C(=O)[C@H](C(C)C)NC(=O)[C@H](Cc2ccc(-c3ccccc3)cc2)NC1=O` [Example 1088] ({CH2CO}-FYDFL[Bip]V[NMeA][Sar]NLVSCG-NH2; thioether N-14): the pIC50 is 6.60.
